The values below come from patent US8383139B2 (Bayer CropScience AG, priority 2008, dated 2013).

Read-outs that look alike come from different tables or passages of the source.

This data set can be described thus: log P by HPLC on reversed-phase columns (C 18), EEC Directive 79/831 Annex V.A8. It counts as physicochemical. Particulars: for log p: [a] HPLC.
Where [1] appears, read: reversed-phase C18 HPLC column, pH 2.3, pH 2.3, given in synthesis examples, read-out: log P (pH2.3).
[2] abbreviates: acid region pH 2.3, 0.1% aqueous phosphoric acid and acetonitrile.

On to `O=c1oc(C2(c3ccc(Cl)cc3)CC2)ns1`, for which, for the setting “pH 2.3, given in synthesis examples, read-out: log P (pH2.3)”, the chromatographic logP was found to be 3.59.

As to `Cc1ccc(S(=O)(=O)c2nc(C3(c4ccc(Cl)cc4)CC3)ns2)cc1` [3-[1-(4-Chlorophenyl)cyclopropyl]-5-[(4-methylphenyl)sulphonyl]-1,2,4-thiadiazole], the chromatographic logP under setting [1] amounted to 4.97.

As for `Cc1cc(Oc2nc(C3(c4ccc(Cl)cc4)CC3)ns2)c(C)cc1N` [4-({3-[1-(4-Chlorophenyl)cyclopropyl]-1,2,4-thiadiazol-5-yl}oxy)-2,5-dimethylaniline], the chromatographic logP under setting [1] was 4.44.

Consider `Cc1cc(Oc2nc(Cc3cccc(Cl)c3)ns2)c(C)cc1N` [4-{[3-(3-Chlorobenzyl)-1,2,4-thiadiazol-5-yl]oxy}-2,5-dimethylaniline], for which the chromatographic logP under setting [1] amounted to 3.68.

Regarding `Cc1cc(Oc2nc(C(C)c3ccc(Cl)cc3)ns2)c(Cl)cc1N=CN1CCCCC1` (stereo not drawn) [Example 21, 5-chloro-4-({3-[1-(4-chlorophenyl)ethyl]-1,2,4-thiadiazol-5-yl}oxy)-2-methyl-N-(piperidin-1-ylmethylidene)aniline], the chromatographic logP (reversed-phase C18 HPLC column, pH 2.3, [a] HPLC, acid region pH 2.3, 0.1% aqueous phosphoric acid and acetonitrile, read-out: log p) was 2.67.

As for `Cc1cc(Oc2nc(Cc3ccc(Cl)cc3)ns2)c(C)cc1N=CN(C)CC(F)F` [Example 53], the log p under setting [2] is 2.18^[a].

With `CCN(C)C=Nc1cc(C)c(Oc2nc(Cc3ccc(F)c(F)c3)ns2)cc1C` [Example 54], under setting [2], the log p was 1.86^[a].

As for `Cc1cc(Oc2nc(Cc3ccc(F)cc3F)ns2)c(C)cc1N=CN1CCCCC1` [Example 55], under setting [2], the log p was 2.02^[a].

In the case of `CCN(C)C=Nc1cc(C)c(Oc2nc(Cc3ccc(OC(F)(F)F)cc3)ns2)cc1C` [Example 56], the log p under setting [2] was 2.21^[a].

As for `Cc1cc(Oc2nc(Cc3ccc(F)cc3)ns2)c(C)cc1N=CN1CCCCC1` [Example 57], under setting [2], the log p was 2.05^[a].

For `Cc1cc(Oc2nc(Cc3ccc(OC(F)(F)F)cc3)ns2)c(C)cc1N=CN1CCCCC1` [Example 58], under setting [2], the log p was 2.71^[a].

As for `Cc1cc(Oc2nc(Cc3cccc(Br)c3)ns2)c(C)cc1N=CN1CCCCC1` [Example 59], under setting [2], the log p is 2.23^[a].

`CCN(C)C=Nc1cc(C)c(Oc2nc(Cc3ccc(F)cc3)ns2)cc1C` [Example 60]: the log p under setting [2] is 1.74^[a].

`CCN(C)C=Nc1cc(C)c(Oc2nc(Cc3ccccc3Cl)ns2)cc1C` [Example 61]: the log p under setting [2] was 1.97^[a].

For `Cc1cc(Oc2nc(Cc3ccccc3Cl)ns2)c(C)cc1N=CN1CCCCC1` [Example 62], the log p under setting [2] is 2.43^[a].

Regarding `Cc1cc(Oc2nc(Cc3ccc(F)c(F)c3)ns2)c(C)cc1N=CN1CCCCC1` [Example 63], under setting [2], the log p is 2.39^[a].

As to `CCN(C)C=Nc1cc(C)c(Oc2nc(Cc3ccc([N+](=O)[O-])cc3)ns2)cc1C` [Example 64], the log p under setting [2] is 2.11^[a].

In the case of `CCN(C)C=Nc1cc(C)c(Oc2nc(Cc3cccc(Br)c3)ns2)cc1C` [Example 65], the log p under setting [2] is 2.38^[a].

Consider `CCN(C)C=Nc1cc(C)c(Oc2nc(Cc3cc(F)ccc3F)ns2)cc1C` [Example 67], for which the log p under setting [2] was 1.66^[a].

For the compound `Cc1ccccc1Cc1nsc(Oc2cc(C)c(N=CN3CCCCC3)cc2C)n1` [Example 68], the log p under setting [2] was 2.06^[a].

As for `CCN(C)C=Nc1cc(C)c(Oc2nc(Cc3ccc(C#N)cc3)ns2)cc1C` [Example 69], the log p under setting [2] is 1.63^[a].

On to `Cc1cc(Oc2nc(Cc3ccc(-c4ccccc4)cc3)ns2)c(C)cc1N=CN1CCCCC1` [Example 70], for which, under setting [2], the log p is 2.45^[a].

Regarding `CCN(C)C=Nc1cc(C)c(Oc2nc(Cc3ccc(C(F)(F)F)cc3)ns2)cc1C` [Example 71], the log p under setting [2] is 2.29^[a].

As for `CCN(C)C=Nc1cc(C)c(Oc2nc(Cc3ccccc3C)ns2)cc1C` [Example 72], the log p under setting [2] was 1.89^[a].

As to `CCN(C)C=Nc1cc(C)c(Oc2nc(Cc3ccc(-c4ccccc4)cc3)ns2)cc1C` [Example 73], the log p under setting [2] is 2.8^[a].

For the compound `CCN(C)C=Nc1cc(C)c(Oc2nc(Cc3c(F)cccc3Cl)ns2)cc1C` [Example 74], under setting [2], the log p was 2.33^[a].

For `CCN(C)C=Nc1cc(C)c(Oc2nc(Cc3ccc(OC)cc3)ns2)cc1C` [Example 75], the log p under setting [2] is 2.98^[a].

For `COc1ccc(Cc2nsc(Oc3cc(C)c(N=CN4CCCCC4)cc3C)n2)cc1` [Example 76], the log p under setting [2] was 1.9^[a].

For `Cc1cc(Oc2nc(Cc3c(F)cccc3Cl)ns2)c(C)cc1N=CN1CCCCC1` [Example 77], the log p under setting [2] was 2.12^[a].

As to `CCN(C)C=Nc1cc(C)c(Oc2nc(Cc3cccc(F)c3)ns2)cc1C` [Example 78], the log p under setting [2] was 1.87^[a].

For `Cc1cc(Oc2nc(Cc3ccc(C(F)(F)F)cc3)ns2)c(C)cc1N=CN1CCCCC1` [Example 79], the log p under setting [2] was 2.66^[a].

For `CCN(C)C=Nc1cc(C)c(Oc2nc(Cc3ccc(Oc4ccccc4)cc3)ns2)cc1C` [Example 80], the log p under setting [2] is 2.72^[a].

Take `Cc1cc(Oc2nc(Cc3cccc(F)c3)ns2)c(C)cc1N=CN1CCCCC1` [Example 81]: the log p under setting [2] was 2.25^[a].

For `Cc1cc(Oc2nc(Cc3ccc(C#N)cc3)ns2)c(C)cc1N=CN1CCCCC1` [Example 82], the log p under setting [2] was 2.06^[a].

For the compound `Cc1ccc(Br)cc1Cc1nsc(Oc2cc(C)c(N=CN3CCCCC3)cc2C)n1` [Example 83], under setting [2], the log p is 2.79^[a].

As to `Cc1cc(Oc2nc(Cc3cc(F)ccc3F)ns2)c(C)cc1N=CN1CCCCC1` [Example 84], the log p under setting [2] was 2.4^[a].

Regarding `Cc1cc(Oc2nc(Cc3ccc(Oc4ccccc4)cc3)ns2)c(C)cc1N=CN1CCCCC1` [Example 85], the log p under setting [2] is 2.85^[a].

In the case of `Cc1cc(Oc2nc(Cc3c(Cl)cccc3Cl)ns2)c(C)cc1N=CN1CCCCC1` [Example 86], the log p under setting [2] was 2.6^[a].

For the compound `COc1cccc(Cc2nsc(Oc3cc(C)c(N=CN4CCCCC4)cc3C)n2)c1` [Example 87], the log p under setting [2] is 2.17^[a].

With `Cc1cc(Oc2nc(Cc3ccc(SC(F)(F)F)cc3)ns2)c(C)cc1N=CN1CCCCC1` [Example 88], the log p under setting [2] was 2.67^[a].

In the case of `CCOc1ccc(Cc2nsc(Oc3cc(C)c(N=CN(C)CC)cc3C)n2)cc1` [Example 89], the log p under setting [2] was 2.06^[a].

For the compound `CCOc1ccc(Cc2nsc(Oc3cc(C)c(N=CN4CCCCC4)cc3C)n2)cc1` [Example 90], the log p under setting [2] is 2.23^[a].

On to `Cc1cc(Oc2nc(Cc3ccc(F)c(C(F)(F)F)c3)ns2)c(C)cc1N=CN1CCCCC1` [Example 91], for which the log p under setting [2] was 2.44^[a].

As to `Cc1cc(Oc2nc(Cc3ccc4ccccc4c3)ns2)c(C)cc1N=CN1CCCCC1` [Example 92], the log p under setting [2] was 2.43^[a].

Consider `Cc1cc(Oc2nc(Cc3cccc(Cl)c3Cl)ns2)c(C)cc1N=CN1CCCCC1` [Example 93], for which the log p under setting [2] was 2.38^[a].

`CCN(C)C=Nc1cc(C)c(Oc2nc(Cc3ccc(F)c(C(F)(F)F)c3)ns2)cc1C` [Example 94]: the log p under setting [2] is 2.24^[a].

Consider `CCN(C)C=Nc1cc(Cl)c(Oc2nc(Cc3ccc(SC(F)(F)F)cc3)ns2)cc1C` [Example 95], for which the log p under setting [2] was 2.51^[a].

With `CCN(C)C=Nc1cc(C)c(Oc2nc(Cc3cccc(Cl)c3Cl)ns2)cc1C` [Example 96], the log p under setting [2] is 2.21^[a].

`CCN(C)C=Nc1cc(C)c(Oc2nc(Cc3ccc4ccccc4c3)ns2)cc1C` [Example 97]: the log p under setting [2] is 2.22^[a].

In the case of `Cc1cc(Oc2nc(Cc3ccccc3Br)ns2)c(C)cc1N=CN1CCCCC1` [Example 98], under setting [2], the log p was 2.36^[a].

For the compound `CCN(C)C=Nc1cc(C)c(Oc2nc(Cc3ccccc3F)ns2)cc1C` [Example 99], the log p under setting [2] was 2.12^[a].

Regarding `CCN(C)C=Nc1cc(C)c(Oc2nc(Cc3ccccc3Br)ns2)cc1C` [Example 100], under setting [2], the log p was 2.32^[a].

Consider `CCOCC(NC=Nc1cc(C)c(Oc2nc(Cc3ccc(OC(F)(F)F)cc3)ns2)cc1C)C1CC1` (stereo not drawn) [Example 101], for which the log p under setting [2] was 2.85^[a].

Take `CCN(C)C=Nc1cc(C)c(Oc2nc(Cc3ccc(SC(F)(F)F)cc3)ns2)cc1C` [Example 102]: the log p under setting [2] is 2.78^[a].

As to `Cc1ccc(Cc2nsc(Oc3cc(C)c(N=CN4CCCCC4)cc3C)n2)c([N+](=O)[O-])c1` [Example 103], the log p under setting [2] is 2.44^[a].

Turning to `Cc1cc(Oc2nc(Cc3ccccc3F)ns2)c(C)cc1N=CN1CCCCC1` [Example 104], the log p under setting [2] was 2.27^[a].

For the compound `CCN(C)C=Nc1cc(C)c(Oc2nc(Cc3c(F)cc(F)cc3F)ns2)cc1C` [Example 105], under setting [2], the log p is 2.1^[a].

Regarding `CCN(C)C=Nc1cc(C)c(Oc2nc(Cc3ccccc3[N+](=O)[O-])ns2)cc1C` [Example 106], the log p under setting [2] is 2.07^[a].

As for `Cc1cc(Oc2nc(Cc3ccc4ccccc4c3)ns2)c(C)cc1N=CN1CCCCC1` [Example 107], the log p under setting [2] is 2.37^[a].

Turning to `CCN(C)C=Nc1cc(C(C)C)c(Oc2nc(Cc3ccc(Cl)cc3Cl)ns2)cc1C` [Example 108], the log p under setting [2] is 2.93^[a].

Take `CCN(C)C=Nc1cc(C(C)C)c(Oc2nc(Cc3ccc(Cl)cc3)ns2)cc1C` [Example 109]: under setting [2], the log p was 2.71^[a].

For `CCN(C)C=Nc1cc(C(C)C)c(Oc2nc(Cc3ccc(F)cc3)ns2)cc1C` [Example 110], under setting [2], the log p was 2.41^[a].

In the case of `CCN(C)C=Nc1cc(C(C)C)c(Oc2nc(Cc3ccc(Br)cc3)ns2)cc1C` [Example 111], the log p under setting [2] was 2.75^[a].

As to `CCN(C)C=Nc1cc(C)c(Oc2nc(Cc3ccc4ccccc4c3)ns2)cc1C` [Example 112], the log p under setting [2] is 2.24^[a].

Consider `CCN(C)C=Nc1cc(C)c(Oc2nc(Cc3cccc(C)c3)ns2)cc1C` [Example 113], for which the log p under setting [2] is 2.28^[a].

In the case of `Cc1cccc(Cc2nsc(Oc3cc(C)c(N=CN4CCCCC4)cc3C)n2)c1` [Example 114], the log p under setting [2] was 2.44^[a].

With `Cc1cc(F)c(Br)cc1Cc1nsc(Oc2cc(C)c(N=CN3CCCCC3)cc2C)n1` [Example 115], under setting [2], the log p was 2.76^[a].

On to `CCN(C)C=Nc1cc(C)c(Oc2nc(Cc3cc(Br)c(F)cc3C)ns2)cc1C` [Example 116], for which the log p under setting [2] was 2.57^[a].

On to `Cc1cc(Oc2nc(Cc3c(F)cc(F)cc3F)ns2)c(C)cc1N=CN1CCCCC1` [Example 117], for which, under setting [2], the log p is 2.33^[a].
